Source: patent US8962671B2, “Amino-substituted 3-heteroaroylamino-propionic acid derivatives and their use as pharmaceuticals” (Sanofi, priority 2011, dated 2015)

target: T1, Recombinant human cathepsin A (Homo sapiens, UniProt P10619); experiment: Cathepsin A inhibitory activity; format: biochemical; conditions: activated recombinant human cathepsin A 833 ng/ml, Bodipy FL-labeled bradykinin 2 μM, pH 5.5, 15 min room temperature
T1 construct: Recombinant human cathepsin A (residues 29-480, with a C-terminal 10-His tag); 10-His (C); purchased R&D Systems 1049-SE
T1 sequence (P10619 29-326 limits assumed): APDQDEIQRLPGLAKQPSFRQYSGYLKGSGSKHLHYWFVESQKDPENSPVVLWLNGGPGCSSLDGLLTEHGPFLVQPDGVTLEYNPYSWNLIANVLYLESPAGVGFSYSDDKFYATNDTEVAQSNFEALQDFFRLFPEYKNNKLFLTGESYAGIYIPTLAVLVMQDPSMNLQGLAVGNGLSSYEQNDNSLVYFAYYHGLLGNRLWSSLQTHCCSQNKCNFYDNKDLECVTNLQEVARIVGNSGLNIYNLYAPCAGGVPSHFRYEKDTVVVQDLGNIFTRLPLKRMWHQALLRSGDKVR
T1 sequence (P10619 327-480 limits assumed): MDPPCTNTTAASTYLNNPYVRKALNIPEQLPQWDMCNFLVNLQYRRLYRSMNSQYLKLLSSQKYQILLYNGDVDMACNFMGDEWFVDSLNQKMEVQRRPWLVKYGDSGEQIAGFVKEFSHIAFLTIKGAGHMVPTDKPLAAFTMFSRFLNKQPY
Protocol: a) Cathepsin a Inhibitory Activity
Recombinant human cathepsin A (residues 29-480, with a C-terminal 10-His tag; R&D Systems, #1049-SE) was proteolytically activated with recombinant human cathepsin L (R&D Systems, #952-CY). Briefly, cathepsin A was incubated at 10 μg/ml with cathepsin L at 1 μg/ml in activation buffer (25 mM 2-(morpholin-4-yl)-ethanesulfonic acid (MES), pH 6.0, containing 5 mM dithiothreitol (DTT)) for 15 min at 37° C. Cathepsin L activity was then stopped by the addition of the cysteine protease inhibitor E-64 (N-(trans-epoxysuccinyl)-L-leucine-4-guanidinobutylamide; Sigma-Aldrich, #E3132; dissolved in activation buffer/DMSO) to a final concentration of 10 μM.
The activated cathepsin A was diluted in assay buffer (25 mM MES, pH 5.5, containing 5 mM DTT) and mixed with the test compound (dissolved in assay buffer containing (v/v) 3% DMSO) or, in the control experiments, with the vehicle in a multiple assay plate. After incubation for 15 min at room temperature, as substrate then bradykinin carrying an N-Terminal®Bodipy FL (4,4-difluoro-5,7-dimethyl-4-bora-3a,4a-diaza-s-indacene-3-propionyl) label (JPT Peptide Technologies GmbH; dissolved in assay buffer) was added to the mixture. The final concentration of cathepsin A was 833 ng/ml and the final concentration of labeled bradykinin 2 μM. After incubation for 15 min at room temperature the reaction was stopped by the addition of stop buffer (130 mM 2-(4-(2-hydroxy-ethyl)-piperazin-1-yl)-ethanesulfonic acid, pH 7.4, containing (v/v) 0.013%®Triton X-100, 0.13% Coating Reagent 3 (Caliper Life Sciences), 6.5% DMSO and 20 μM ebelactone B (Sigma, #E0886)).
Uncleaved substrate and product were then separated by a microfluidic capillary electrophoresis on a LabChip® 3000 Drug Discovery System (12-Sipper-Chip; Caliper Life Sciences) and quantified by determination of the respective peak areas. Substrate turnover was calculated by dividing product peak area by the sum of substrate and product peak areas, and the enzyme activity and the inhibitory effect of the test compound thus quantified. From the percentage of inhibition of cathepsin A activity observed with the test compound at several concentrations, the inhibitory concentration IC50, i.e. the concentration which effects 50% inhibition of enzyme activity was, calculated.

Compound | IC50
Cc1ccccc1[C@H](CC(=O)O)NC(=O)c1cc(NC[C@H](O)C(C)(C)C)n(-c2ccccc2)n1 (single isomer, unassigned) [Example 59] | 24.9 nM
Cc1ccccc1[C@H](CC(=O)O)NC(=O)c1cc(NC[C@@H](O)C(C)(C)C)n(-c2ccccc2)n1 (single isomer, unassigned) [Example 60] | 11.3 nM
Cc1ccccc1[C@H](CC(=O)O)NC(=O)c1cc(N)n(-c2ccccc2)n1 [Example 1, (S)-3-[(5-Amino-1-phenyl-1H-pyrazole-3-carbonyl)-amino]-3-o-tolyl-propionic acid] | 25.1 nM
Nc1cc(C(=O)NC(CC(=O)O)c2ccc(-c3ccc(F)cc3)cc2)nn1-c1ccccc1 (stereo not drawn) [Example 2, 3-[(5-Amino-1-phenyl-1H-pyrazole-3-carbonyl)-amino]-3-(4′-fluoro-biphenyl-4-yl)-propionic acid] | 53.2 nM
Cc1ccccc1[C@H](CC(=O)O)NC(=O)c1cc(N)n(-c2ccccc2F)n1 [Example 3, (S)-3-{[5-Amino-1-(2-fluoro-phenyl)-1H-pyrazole-3-carbonyl]-amino}-3-o-tolyl-propionic acid] | 13.8 nM
Nc1cc(C(=O)NC(CC(=O)O)c2ccc(-c3ccc(F)cc3)cc2)nn1-c1ccccc1F (stereo not drawn) [Example 4, 3-{[5-Amino-1-(2-fluoro-phenyl)-1H-pyrazole-3-carbonyl]-amino}-3-(4′-fluoro-biphenyl-4-yl)-propionic acid] | 18.5 nM
Cc1ccccc1[C@H](CC(=O)O)NC(=O)c1nn(-c2ccccc2F)c(N)c1C#N [Example 5, (S)-3-{[5-Amino-4-cyano-1-(2-fluoro-phenyl)-1H-pyrazole-3-carbonyl]-amino}-3-o-tolyl-propionic acid] | 18.7 nM
Cc1ccccc1[C@H](CC(=O)O)NC(=O)c1cc(N2CCCC2)n(-c2ccccc2)n1 [Example 6, (S)-3-[(1-Phenyl-5-pyrrolidin-1-yl-1H-pyrazole-3-carbonyl)-amino]-3-o-tolyl-propionic acid] | 15.6 nM
Nc1cc(C(=O)NC(CC(=O)O)c2ccc(-c3ccccn3)cc2)nn1-c1ccccc1F (stereo not drawn) [Example 7, 3-{[5-Amino-1-(2-fluoro-phenyl)-1H-pyrazole-3-carbonyl]-amino}-3-(4-pyridin-2-yl-phenyl)-propionic acid] | 20.4 nM
Nc1cc(C(=O)N[C@@H](CC(=O)O)c2cccc(Cl)c2Cl)nn1-c1ccccc1F [Example 8, (S)-3-{[5-Amino-1-(2-fluoro-phenyl)-1H-pyrazole-3-carbonyl]-amino}-3-(2,3-dichloro-phenyl)-propionic acid] | 23.2 nM
Nc1cc(C(=O)NC(CC(=O)O)c2cc(Cl)ccc2Cl)nn1-c1ccccc1F (stereo not drawn) [Example 9, 3-{[5-Amino-1-(2-fluoro-phenyl)-1H-pyrazole-3-carbonyl]-amino}-3-(2,5-dichloro-phenyl)-propionic acid] | 200 nM
Cc1ccccc1[C@H](CC(=O)O)NC(=O)c1cc(NC(=O)Nc2ccccc2)n(-c2ccccc2)n1 [Example 10, (S)-3-{[1-Phenyl-5-(3-phenyl-ureido)-1H-pyrazole-3-carbonyl]-amino}-3-o-tolyl-propionic acid] | 14 nM
Cc1ccccc1[C@H](CC(=O)O)NC(=O)c1cc(NS(C)(=O)=O)n(-c2ccccc2)n1 [Example 11, (S)-3-[(5-Methanesulfonylamino-1-phenyl-1H-pyrazole-3-carbonyl)-amino]-3-o-tolyl-propionic acid] | 25.2 nM
Cc1ccccc1[C@H](CC(=O)O)NC(=O)c1cc(N2CCCS2(=O)=O)n(-c2ccccc2F)n1 [Example 12, (S)-3-{[5-(1,1-Dioxo-1lambda6-isothiazolidin-2-yl)-1-(2-fluoro-phenyl)-1H-pyrazole-3-carbonyl]-amino}-3-o-tolyl-propionic acid] | 13.6 nM
Cc1ccccc1[C@H](CC(=O)O)NC(=O)c1cc(N2CCCC2)n(-c2ccccc2F)n1 [Example 13, (S)-3-{[1-(2-Fluoro-phenyl)-5-pyrrolidin-1-yl-1H-pyrazole-3-carbonyl]-amino}-3-o-tolyl-propionic acid] | 8.4 nM
Cc1ccccc1[C@H](CC(=O)O)NC(=O)c1cc(N2CCCC2=O)n(-c2ccccc2F)n1 [Example 14, (S)-3-{[1-(2-Fluoro-phenyl)-5-(2-oxo-pyrrolidin-1-yl)-1H-pyrazole-3-carbonyl]-amino}-3-o-tolyl-propionic acid] | 25.8 nM
Cc1ccccc1[C@H](CC(=O)O)NC(=O)c1cc(N2CCCC2=O)n(-c2ccccc2)n1 [Example 15, (S)-3-{[5-(2-Oxo-pyrrolidin-1-yl)-1-phenyl-1H-pyrazole-3-carbonyl]-amino}-3-o-tolyl-propionic acid] | 25.5 nM
Cc1ccccc1[C@H](CC(=O)O)NC(=O)c1cc(N2CCCS2(=O)=O)n(-c2ccccc2)n1 [Example 16, (S)-3-{[5-(1,1-Dioxo-1lambda6-isothiazolidin-2-yl)-1-phenyl-1H-pyrazole-3-carbonyl]-amino}-3-o-tolyl-propionic acid] | 17.9 nM
Cc1ccccc1[C@H](CC(=O)O)NC(=O)c1cc(N2CCCCC2=O)n(-c2ccccc2)n1 [Example 17, (S)-3-{[5-(2-Oxo-piperidin-1-yl)-1-phenyl-1H-pyrazole-3-carbonyl]-amino}-3-o-tolyl-propionic acid] | 64.5 nM
Cc1ccccc1[C@H](CC(=O)O)NC(=O)c1cc(N2CCCCC2=O)n(-c2ccccc2F)n1 [Example 18, (S)-3-{[1-(2-Fluoro-phenyl)-5-(2-oxo-piperidin-1-yl)-1H-pyrazole-3-carbonyl]-amino}-3-o-tolyl-propionic acid] | 45.6 nM
Cc1ccccc1[C@H](CC(=O)O)NC(=O)c1cc(Nc2ccccn2)n(-c2ccccc2)n1 [Example 19, (S)-3-{[1-Phenyl-5-(pyridin-2-ylamino)-1H-pyrazole-3-carbonyl]-amino}-3-o-tolyl-propionic acid] | 49.7 nM
O=C(O)CC(NC(=O)c1cc2[nH]c3ccccc3n2n1)c1ccc(F)c(F)c1 (stereo not drawn) [Example 20, 3-[(4H-Benzo[4,5]imidazo[1,2-b]pyrazole-2-carbonyl)-amino]-3-(3,4-difluoro-phenyl)-propionic acid] | 3280 nM
N#Cc1ccc(C(CC(=O)O)NC(=O)c2cc3[nH]c4ccccc4n3n2)cc1 (stereo not drawn) [Example 21, 3-[(4H-Benzo[4,5]imidazo[1,2-b]pyrazole-2-carbonyl)-amino]-3-(4-cyano-phenyl)-propionic acid] | 2390 nM
O=C(O)CC(NC(=O)c1cc2[nH]c3ccccc3n2n1)c1cccc2c1OCO2 (stereo not drawn) [Example 22, 3-Benzo[1,3]dioxol-4-yl-3-[(4H-benzo[4,5]imidazo[1,2-b]pyrazole-2-carbonyl)-amino]-propionic acid] | 1110 nM
O=C(O)CC(NC(=O)c1cc2[nH]c3ccccc3n2n1)c1cccc(F)c1 (stereo not drawn) [Example 23, 3-[(4H-Benzo[4,5]imidazo[1,2-b]pyrazole-2-carbonyl)-amino]-3-(3-fluoro-phenyl)-propionic acid] | 3120 nM
O=C(O)CC(NC(=O)c1cc2[nH]c3ccccc3n2n1)c1ccccc1F (stereo not drawn) [Example 24, 3-[(4H-Benzo[4,5]imidazo[1,2-b]pyrazole-2-carbonyl)-amino]-3-(2-fluoro-phenyl)-propionic acid] | 1750 nM
O=C(O)CC(NC(=O)c1cc2[nH]c3ccccc3n2n1)c1cccc(Oc2ccccc2)c1 (stereo not drawn) [Example 26, 3-[(4H-Benzo[4,5]imidazo[1,2-b]pyrazole-2-carbonyl)-amino]-3-(3-phenoxy-phenyl)-propionic acid] | 2610 nM
